Measurements published in BindingDB's records for doi:10.1021/jm00076a015 (University of Pennsylvania, 1994).
pIC50: −log10 of the molar value.

Target: T1, Ribonucleoside-diphosphate reductase large subunit (Mus musculus, UniProt P07742)
T1 sequence (P07742 whole entry): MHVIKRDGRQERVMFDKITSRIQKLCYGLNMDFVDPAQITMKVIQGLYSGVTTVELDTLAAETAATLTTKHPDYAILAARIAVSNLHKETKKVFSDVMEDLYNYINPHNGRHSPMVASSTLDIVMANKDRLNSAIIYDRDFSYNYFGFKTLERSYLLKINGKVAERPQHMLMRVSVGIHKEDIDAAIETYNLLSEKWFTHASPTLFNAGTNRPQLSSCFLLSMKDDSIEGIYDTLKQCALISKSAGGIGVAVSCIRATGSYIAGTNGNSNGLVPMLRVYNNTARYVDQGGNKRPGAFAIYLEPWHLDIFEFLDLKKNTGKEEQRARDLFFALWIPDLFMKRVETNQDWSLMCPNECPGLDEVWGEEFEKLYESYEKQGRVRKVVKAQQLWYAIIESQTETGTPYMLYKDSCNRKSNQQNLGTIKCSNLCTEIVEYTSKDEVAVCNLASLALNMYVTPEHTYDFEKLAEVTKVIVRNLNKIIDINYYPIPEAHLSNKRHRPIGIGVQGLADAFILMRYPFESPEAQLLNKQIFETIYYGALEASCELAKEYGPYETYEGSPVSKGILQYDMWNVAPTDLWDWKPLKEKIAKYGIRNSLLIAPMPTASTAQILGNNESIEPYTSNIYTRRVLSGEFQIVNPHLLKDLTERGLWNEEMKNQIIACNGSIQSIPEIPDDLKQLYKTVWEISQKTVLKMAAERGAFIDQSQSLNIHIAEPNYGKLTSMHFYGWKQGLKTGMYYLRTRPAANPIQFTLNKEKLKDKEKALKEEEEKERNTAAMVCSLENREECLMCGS
Experiment: ChEBML_195421
Excerpt: Inhibitory activity of compound against mammalian ribonucleotide reductase; Range is 40-42

pIC50: 4.39
Substance: Ac-AGAFTFNEDF-OH
